Source: patent US20230074545A1, “TREATMENT OF CANCER WITH CDK12/13 INHIBITORS” (Kinnate Biopharma Inc., priority 2019, published 2023)

Tests used:
Experiment in all cases: Radiometric kinase panel
Format in all cases: biochemical
[1] = biological target: T1, ACK1 (Homo sapiens, UniProt Q07912)
T1 construct: either as full-length or enzymatically active fragments; purchased ProQinase GmbH (Reaction Biology)
Summary of the method: (§1)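 Activity was measured radiometrically from [gamma-33P]-ATP incorporation into substrate. The kinases were recombinant human GST- or His-tagged proteins, full-length or active fragments, expressed in Sf9 or E. coli. Compound in 10% DMSO was added before the enzyme/substrate mix, which started the reaction.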

[2] = biological target: T2, ACVR2A (Homo sapiens, UniProt P27037)
T2 construct: either as full-length or enzymatically active fragments; purchased ProQinase GmbH (Reaction Biology)
Summary of the method: as §1

[3] = biological target: T3, BMPR1A (Homo sapiens, UniProt P36894)
T3 construct: either as full-length or enzymatically active fragments; purchased ProQinase GmbH (Reaction Biology)
Summary of the method: as §1

[4] = biological target: T4, CAMK2D (Homo sapiens, UniProt Q13557)
T4 construct: purchased ProQinase GmbH (Reaction Biology)
Summary of the method: as §1

[5] = biological target: T5, CDK1/CycB1 (Homo sapiens, UniProt P06493)
T5 construct: either as full-length or enzymatically active fragments; purchased ProQinase GmbH (Reaction Biology); host or cells: Sf9 insect cells or E. coli
Summary of the method: as §1

[6] = biological target: T6, CDK4/CycD1 (Homo sapiens, UniProt P11802)
T6 construct: either as full-length or enzymatically active fragments; purchased ProQinase GmbH (Reaction Biology); host or cells: Sf9 insect cells or E. coli (not specified per kinase)
Summary of the method: as §1

[7] = biological target: T7, CDK5/p25NCK (Homo sapiens, UniProt Q00535)
T7 construct: either as full-length or enzymatically active fragments; purchased ProQinase GmbH (Reaction Biology)
Summary of the method: as §1

[8] = biological target: T8, CDK9/CycT1 (Homo sapiens, UniProt P50750)
T8 construct: either as full-length or enzymatically active fragments; purchased ProQinase GmbH (Reaction Biology)
Summary of the method: as §1

[9] = biological target: T9, EEF2K (Homo sapiens, UniProt O00418)
T9 construct: either as full-length or enzymatically active fragments; purchased ProQinase GmbH (Reaction Biology)
Summary of the method: as §1

[10] = biological target: T10, EGFR (Homo sapiens, UniProt P00533)
T10 construct: either as full-length or enzymatically active fragments; purchased ProQinase GmbH (Reaction Biology)
Summary of the method: as §1

[11] = biological target: T11, EPHA1 (Homo sapiens, UniProt P21709)
T11 construct: either as full-length or enzymatically active fragments; purchased ProQinase GmbH (Reaction Biology)
Summary of the method: as §1

[12] = biological target: T12, ERK1 (Homo sapiens, UniProt P27361)
T12 construct: either as full-length or enzymatically active fragments; purchased ProQinase GmbH (Reaction Biology)
Summary of the method: as §1

[13] = biological target: T13, ERK5 (Homo sapiens, UniProt Q13164)
T13 construct: either as full-length or enzymatically active fragments; purchased ProQinase GmbH (Reaction Biology)
Summary of the method: as §1

[14] = biological target: T14, FGR (Homo sapiens, UniProt P09769)
T14 construct: purchased ProQinase GmbH (Reaction Biology)
Summary of the method: as §1

[15] = biological target: T15, HRI (Homo sapiens, UniProt Q9BQI3)
T15 construct: either as full-length or enzymatically active fragments; purchased ProQinase GmbH (Reaction Biology)
Summary of the method: as §1

[16] = biological target: T16, IKKbeta (Homo sapiens, UniProt O14920)
T16 construct: purchased ProQinase GmbH (Reaction Biology); host or cells: Sf9 insect cells or E. coli (not specified per kinase)
Summary of the method: as §1

[17] = biological target: T17, INSR (Homo sapiens, UniProt P06213)
T17 construct: either as full-length or enzymatically active fragments; purchased ProQinase GmbH (Reaction Biology); host or cells: Sf9 insect cells or E. coli (not specified per kinase)
Summary of the method: as §1

[18] = biological target: T18, LYN (Homo sapiens, UniProt P07948)
T18 construct: either as full-length or enzymatically active fragments; purchased ProQinase GmbH (Reaction Biology)
Summary of the method: as §1

[19] = biological target: T19, MARK2 (Homo sapiens, UniProt Q7KZI7)
T19 construct: either as full-length or enzymatically active fragments; purchased ProQinase GmbH (Reaction Biology)
Summary of the method: as §1

[20] = biological target: T20, MKK4 (Homo sapiens, UniProt P45985)
T20 construct: either as full-length or enzymatically active fragments; purchased ProQinase GmbH (Reaction Biology)
Summary of the method: as §1

[21] = biological target: T21, PAK4 (Homo sapiens, UniProt O96013)
T21 construct: either as full-length or enzymatically active fragments; purchased ProQinase GmbH (Reaction Biology)
Summary of the method: as §1

[22] = biological target: T22, PASK (Homo sapiens, UniProt Q96RG2)
T22 construct: either as full-length or enzymatically active fragments; purchased ProQinase GmbH (Reaction Biology)
Summary of the method: as §1

[23] = biological target: T23, PKN3 (Homo sapiens, UniProt Q6P5Z2)
T23 construct: purchased ProQinase GmbH (Reaction Biology)
Summary of the method: as §1

[24] = biological target: T24, ROS (Homo sapiens, UniProt P08922)
T24 construct: either as full-length or enzymatically active fragments; purchased ProQinase GmbH (Reaction Biology)
Summary of the method: as §1

[25] = biological target: T25, S6Kbeta (Homo sapiens, UniProt Q9UBS0)
T25 construct: purchased ProQinase GmbH (Reaction Biology); host or cells: Sf9 insect cells or E. coli (not specified per kinase)
Summary of the method: as §1

[26] = biological target: T26, SGK3 (Homo sapiens, UniProt Q96BR1)
T26 construct: either as full-length or enzymatically active fragments; purchased ProQinase GmbH (Reaction Biology)
Summary of the method: as §1

[27] = biological target: T27, SRPK1 (Homo sapiens, UniProt Q96SB4)
T27 construct: either as full-length or enzymatically active fragments; purchased ProQinase GmbH (Reaction Biology)
Summary of the method: as §1

[28] = biological target: T28, TAOK2 (Homo sapiens, UniProt Q9UL54)
T28 construct: either as full-length or enzymatically active fragments; purchased ProQinase GmbH (Reaction Biology)
Summary of the method: as §1

[29] = biological target: T29, TNK1 (Homo sapiens, UniProt Q13470)
T29 construct: either as full-length or enzymatically active fragments; purchased ProQinase GmbH (Reaction Biology)
Summary of the method: as §1

[30] = biological target: T30, WNK3 (Homo sapiens, UniProt Q9BYP7)
T30 construct: either as full-length or enzymatically active fragments; purchased ProQinase GmbH (Reaction Biology)
Summary of the method: as §1

[31] = biological target: T31, YES (Homo sapiens, UniProt P07947)
T31 construct: either as full-length or enzymatically active fragments; purchased ProQinase GmbH (Reaction Biology)
Summary of the method: as §1

T30 sequence (Q9BYP7 whole entry, the tested form may be a part): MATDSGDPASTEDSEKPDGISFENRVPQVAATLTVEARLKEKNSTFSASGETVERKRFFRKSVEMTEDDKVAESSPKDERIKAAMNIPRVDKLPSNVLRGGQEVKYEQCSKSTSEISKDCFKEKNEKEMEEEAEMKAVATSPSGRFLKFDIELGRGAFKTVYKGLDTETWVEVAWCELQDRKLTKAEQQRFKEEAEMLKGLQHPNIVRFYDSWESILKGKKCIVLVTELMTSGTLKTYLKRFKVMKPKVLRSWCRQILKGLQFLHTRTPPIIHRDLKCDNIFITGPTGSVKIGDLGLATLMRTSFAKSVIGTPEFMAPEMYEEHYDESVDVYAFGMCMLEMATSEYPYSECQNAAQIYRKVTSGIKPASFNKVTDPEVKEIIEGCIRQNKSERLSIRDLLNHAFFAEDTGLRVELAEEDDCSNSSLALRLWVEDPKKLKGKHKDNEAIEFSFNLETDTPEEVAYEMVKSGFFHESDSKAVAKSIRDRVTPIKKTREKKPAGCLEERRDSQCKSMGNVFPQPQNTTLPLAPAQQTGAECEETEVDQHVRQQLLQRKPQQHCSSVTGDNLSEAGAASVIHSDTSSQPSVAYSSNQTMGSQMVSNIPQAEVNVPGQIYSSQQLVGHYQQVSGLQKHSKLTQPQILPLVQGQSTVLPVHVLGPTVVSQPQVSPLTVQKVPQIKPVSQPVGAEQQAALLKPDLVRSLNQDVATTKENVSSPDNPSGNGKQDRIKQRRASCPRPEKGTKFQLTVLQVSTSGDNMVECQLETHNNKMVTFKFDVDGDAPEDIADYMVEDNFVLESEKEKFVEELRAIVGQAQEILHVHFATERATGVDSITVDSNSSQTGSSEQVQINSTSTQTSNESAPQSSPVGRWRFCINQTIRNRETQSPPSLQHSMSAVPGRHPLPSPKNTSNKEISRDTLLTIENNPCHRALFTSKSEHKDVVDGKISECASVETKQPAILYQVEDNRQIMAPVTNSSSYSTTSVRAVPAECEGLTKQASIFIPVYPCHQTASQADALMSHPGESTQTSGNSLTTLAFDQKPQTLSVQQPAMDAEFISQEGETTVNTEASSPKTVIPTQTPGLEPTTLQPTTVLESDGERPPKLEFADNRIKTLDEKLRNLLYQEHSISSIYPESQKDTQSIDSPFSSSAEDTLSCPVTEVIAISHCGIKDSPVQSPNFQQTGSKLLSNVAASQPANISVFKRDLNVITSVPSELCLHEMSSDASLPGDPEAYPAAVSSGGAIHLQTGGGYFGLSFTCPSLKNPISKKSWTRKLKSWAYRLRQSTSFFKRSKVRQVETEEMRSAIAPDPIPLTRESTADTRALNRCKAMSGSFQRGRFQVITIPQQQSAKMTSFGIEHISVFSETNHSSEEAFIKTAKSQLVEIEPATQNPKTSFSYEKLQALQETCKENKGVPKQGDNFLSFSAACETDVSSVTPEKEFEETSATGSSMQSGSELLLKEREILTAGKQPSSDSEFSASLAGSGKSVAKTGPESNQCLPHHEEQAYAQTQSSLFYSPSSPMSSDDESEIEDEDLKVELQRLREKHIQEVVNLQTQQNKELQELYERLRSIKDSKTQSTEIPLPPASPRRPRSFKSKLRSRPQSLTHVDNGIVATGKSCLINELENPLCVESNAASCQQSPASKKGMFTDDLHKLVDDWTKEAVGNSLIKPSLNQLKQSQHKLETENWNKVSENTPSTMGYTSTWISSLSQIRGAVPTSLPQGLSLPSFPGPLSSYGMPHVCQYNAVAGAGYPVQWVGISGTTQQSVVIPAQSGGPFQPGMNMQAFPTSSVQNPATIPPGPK
T3 sequence (P36894 24-532): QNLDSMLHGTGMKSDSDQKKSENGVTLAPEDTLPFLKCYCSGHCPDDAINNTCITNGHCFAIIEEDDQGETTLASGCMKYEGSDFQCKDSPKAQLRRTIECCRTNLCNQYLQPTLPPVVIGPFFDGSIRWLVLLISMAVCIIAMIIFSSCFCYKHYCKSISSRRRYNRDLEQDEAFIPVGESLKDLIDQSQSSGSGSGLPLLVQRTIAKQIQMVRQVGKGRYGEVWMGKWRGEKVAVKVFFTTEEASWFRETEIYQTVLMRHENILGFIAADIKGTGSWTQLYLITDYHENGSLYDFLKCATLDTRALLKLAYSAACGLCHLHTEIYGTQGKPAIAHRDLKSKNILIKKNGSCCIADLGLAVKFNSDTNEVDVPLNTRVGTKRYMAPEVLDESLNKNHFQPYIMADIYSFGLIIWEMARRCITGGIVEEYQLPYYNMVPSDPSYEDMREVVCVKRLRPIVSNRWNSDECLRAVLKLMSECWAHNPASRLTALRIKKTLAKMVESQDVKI
T13 sequence (Q13164 whole entry, the tested form may be a part): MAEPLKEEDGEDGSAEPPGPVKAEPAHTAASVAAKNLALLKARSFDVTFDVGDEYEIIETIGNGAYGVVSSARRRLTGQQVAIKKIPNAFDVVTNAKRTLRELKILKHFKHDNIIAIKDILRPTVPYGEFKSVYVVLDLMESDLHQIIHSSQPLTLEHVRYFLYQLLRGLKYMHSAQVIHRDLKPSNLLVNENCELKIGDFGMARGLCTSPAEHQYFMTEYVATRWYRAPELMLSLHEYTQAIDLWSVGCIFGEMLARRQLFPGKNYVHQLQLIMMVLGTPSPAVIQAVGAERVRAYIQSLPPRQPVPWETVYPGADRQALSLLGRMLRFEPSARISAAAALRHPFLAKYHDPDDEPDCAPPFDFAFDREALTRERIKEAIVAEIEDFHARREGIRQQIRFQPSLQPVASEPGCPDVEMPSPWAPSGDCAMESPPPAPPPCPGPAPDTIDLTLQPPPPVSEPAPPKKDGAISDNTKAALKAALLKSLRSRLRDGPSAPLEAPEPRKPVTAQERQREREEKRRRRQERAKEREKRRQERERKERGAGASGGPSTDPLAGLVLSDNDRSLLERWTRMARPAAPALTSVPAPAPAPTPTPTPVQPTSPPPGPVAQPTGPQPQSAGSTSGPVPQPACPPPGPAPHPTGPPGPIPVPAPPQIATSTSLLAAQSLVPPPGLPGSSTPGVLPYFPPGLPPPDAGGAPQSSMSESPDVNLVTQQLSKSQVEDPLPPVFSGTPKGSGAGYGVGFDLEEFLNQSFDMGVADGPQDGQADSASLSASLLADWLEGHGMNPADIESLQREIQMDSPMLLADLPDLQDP
T11 sequence (P21709 26-976): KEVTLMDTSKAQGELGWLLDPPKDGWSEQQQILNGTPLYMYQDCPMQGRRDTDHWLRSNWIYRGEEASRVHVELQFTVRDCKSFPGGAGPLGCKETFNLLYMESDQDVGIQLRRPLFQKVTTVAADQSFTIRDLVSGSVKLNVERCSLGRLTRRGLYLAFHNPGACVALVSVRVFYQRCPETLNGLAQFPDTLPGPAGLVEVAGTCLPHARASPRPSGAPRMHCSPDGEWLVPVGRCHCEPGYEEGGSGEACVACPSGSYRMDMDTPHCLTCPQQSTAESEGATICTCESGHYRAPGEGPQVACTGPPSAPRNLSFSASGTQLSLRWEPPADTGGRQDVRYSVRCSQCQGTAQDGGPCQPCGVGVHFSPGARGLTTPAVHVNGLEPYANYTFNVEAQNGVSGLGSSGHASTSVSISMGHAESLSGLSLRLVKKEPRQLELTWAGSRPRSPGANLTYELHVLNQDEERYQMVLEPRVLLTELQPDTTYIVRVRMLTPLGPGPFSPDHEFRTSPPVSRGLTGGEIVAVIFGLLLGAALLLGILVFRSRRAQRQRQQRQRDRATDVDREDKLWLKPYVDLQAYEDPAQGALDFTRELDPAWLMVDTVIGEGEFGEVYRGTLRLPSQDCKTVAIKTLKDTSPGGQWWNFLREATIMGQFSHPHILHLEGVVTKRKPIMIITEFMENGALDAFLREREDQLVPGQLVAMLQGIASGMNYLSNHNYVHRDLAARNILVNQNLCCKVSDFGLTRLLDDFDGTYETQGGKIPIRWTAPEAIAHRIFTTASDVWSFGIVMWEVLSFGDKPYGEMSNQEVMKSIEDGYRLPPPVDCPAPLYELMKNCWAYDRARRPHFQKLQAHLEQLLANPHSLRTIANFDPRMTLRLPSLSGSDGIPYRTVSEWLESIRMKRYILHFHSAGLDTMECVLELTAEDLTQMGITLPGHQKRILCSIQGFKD
T31 sequence (P07947 whole entry, the tested form may be a part): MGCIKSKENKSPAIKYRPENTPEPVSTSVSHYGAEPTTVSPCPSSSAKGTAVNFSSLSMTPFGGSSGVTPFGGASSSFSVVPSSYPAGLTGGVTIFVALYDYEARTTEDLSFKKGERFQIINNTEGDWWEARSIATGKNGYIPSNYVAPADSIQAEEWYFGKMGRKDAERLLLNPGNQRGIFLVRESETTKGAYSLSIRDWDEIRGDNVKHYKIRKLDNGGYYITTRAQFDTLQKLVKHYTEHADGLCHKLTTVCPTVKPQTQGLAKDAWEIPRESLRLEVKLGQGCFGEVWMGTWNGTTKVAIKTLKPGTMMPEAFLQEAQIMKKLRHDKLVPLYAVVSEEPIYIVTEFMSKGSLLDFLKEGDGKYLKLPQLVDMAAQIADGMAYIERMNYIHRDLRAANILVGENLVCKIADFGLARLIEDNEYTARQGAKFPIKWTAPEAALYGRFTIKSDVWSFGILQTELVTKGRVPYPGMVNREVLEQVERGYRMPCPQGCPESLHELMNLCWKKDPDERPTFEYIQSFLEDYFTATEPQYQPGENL
T20 sequence (P45985 whole entry, the tested form may be a part): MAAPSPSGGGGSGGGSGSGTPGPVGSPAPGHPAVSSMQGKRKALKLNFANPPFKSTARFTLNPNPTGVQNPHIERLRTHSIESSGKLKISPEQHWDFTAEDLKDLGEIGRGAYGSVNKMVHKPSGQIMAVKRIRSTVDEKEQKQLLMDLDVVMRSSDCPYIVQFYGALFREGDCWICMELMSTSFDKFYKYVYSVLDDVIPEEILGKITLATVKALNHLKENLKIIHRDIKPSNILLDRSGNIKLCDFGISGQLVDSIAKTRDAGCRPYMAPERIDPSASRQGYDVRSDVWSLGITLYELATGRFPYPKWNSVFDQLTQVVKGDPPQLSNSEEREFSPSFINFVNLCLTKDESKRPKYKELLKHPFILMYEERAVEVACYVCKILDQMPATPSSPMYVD

`C=CC(=O)Nc1ccc(C(=O)N2CC[C@@H](Nc3ncc(C#N)cn3)C2)cc1` [Compound 4, (R)-N-(4-(3-((5-cyanopyrimidin-2-yl)amino)pyrrolidine-1-carbonyl)phenyl)acrylamide] gave an inhibition at 1 µM [1] of 6%, an inhibition at 1 µM [2] of 7% and an inhibition at 1 µM [3] of 2%. It also gave an inhibition at 1 µM [4] of 0%, an inhibition at 1 µM [5] of 13% and an inhibition at 1 µM [6] of 9%. It also gave an inhibition at 1 µM [7] of 3%, an inhibition at 1 µM [8] of 27% and an inhibition at 1 µM [9] of 15%. For the same compound, the inhibition at 1 µM [10] was 7%, the inhibition at 1 µM [11] was 3% and the inhibition at 1 µM [12] was -4%. For the same compound, the inhibition at 1 µM [13] was 6%, the inhibition at 1 µM [14] was -1% and the inhibition at 1 µM [15] was -8%. The inhibition at 1 µM [16] was 1%, the inhibition at 1 µM [17] was 8% and the inhibition at 1 µM [18] was -8%. The inhibition at 1 µM [19] was 2%, the inhibition at 1 µM [20] was 4% and the inhibition at 1 µM [21] was -3%. It also gave an inhibition at 1 µM [22] of -5%, an inhibition at 1 µM [23] of -2% and an inhibition at 1 µM [24] of 2%. The inhibition at 1 µM [25] was 1%, the inhibition at 1 µM [26] was 5% and the inhibition at 1 µM [27] was -8%. For the same compound, the inhibition at 1 µM [28] was 5%, the inhibition at 1 µM [29] was 2% and the inhibition at 1 µM [30] was -6%. The inhibition at 1 µM [31] was -5%.
